Results as given in patent publication US20260167623A1 (NIKANG THERAPEUTICS, INC., priority 2022, published 2026).

Tests used:
CDK2 [1] = molecular target: T1, CDK2 (Homo sapiens, UniProt P24941); assay: Inhibition of CDK2: phospho-Rb (S807/811) HTRF measurement in OVCAR3 cells, 24 h; type: cell-based; settings: 24 h compound treatment, read-out: pRB_OVCAR3_24h
T1 construct: High-Throughput Measurement of Cellular Endogenous CDK2; endogenous in cells; host or cells: OVCAR3
Outline: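 IC50 came from a four-parameter fit of DMSO-normalized TR-FRET ratios (665/620 nm) reporting phospho-Rb S807/811. Lysates were taken from OVCAR3 cultures treated 24 h with compound (0.3 to 10,000 nM) and incubated 4 h at room temperature with the antibody pair.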

CDK2 [2] = molecular target: T1, CDK2; assay: High-throughput HTRF measurement of cellular endogenous CDK2 level (degradation, DC50/Dmax) in OVCAR3 cells, 6 h; type: cell-based; settings: 6 h compound treatment, HTRF total CDK2, read-out: DC50_OVCAR3_6h
Method: High-Throughput Measurement of Cellular Endogenous CDK2
Effects of compounds on cellular CDK2 level were monitored by a high-throughput HTRF assay.
To determine half maximal degradation concentration (DC50) and maximum degradation level (Dmax) values of compounds, cellular CDK2 level was measured in 96-well format using HTRF total CDK2 cellular kit (Cat #64CDK2TPEG) from Cisbio.
On Day 1, OVCAR3 cells were seeded into 96-well tissue-culture treated plates at 20,000 cells/well in 200 μL and incubated overnight at 37° C. in CO2 atmosphere. On Day 2 cells were treated with compounds at concentration ranging from 0.03 to 1,000 nM using HP D300 digital dispenser. 6 hours after compound treatment, cell culture media was removed by flicking the plate and tapping the plate against clean paper towel. Immediately 30 μL 1× lysis buffer was supplemented from the kit and added to each well and the plate is incubated at room temperature on shaker for 30 min. After homogenization by pipetting up and down, 8 μL cell lysate from 96-well cell culture plate was transferred to 384-well small volume white detection plate. 2 μL premixed detection solution was added and the plate is covered with sealer. To prepare the detection solution, d2 conjugated-CDK2 antibody and Eu-cryptate conjugated CDK2 antibody were diluted into detection buffer following manufacturer's instruction. Detection plates were incubated overnight at room temperature and read on ClarioStar (BMG Labtech) in TR-FRET mode (665 nM and 620 nM). The TR-FRET ratio (665 nM/620 nM) was plotted against the compound concentration and normalized to DMSO controls (0% degradation) and lysis buffer controls (100% degradation). Half maximal degradation concentration (DC 50) […] were calculated with a four-parameter logistic fit using GraphPad Prism (version 8; La Jolla, CA).
In the table below, AA indicates a DC50 of greater than or equal to 0.5 nM but less than 1 nM; A indicates a DC50 of greater than or equal to 1 nM but less than or equal to 10 nM; B indicates a DC50 of greater than 10 nM but less than or equal to 100 nM; C indicates a DC50 of greater than 100 nM but less than or equal to 1 μM; and D indicates a DC50 of greater than 1 μM […] but less than or equal to 5 μM. NT means not tested.

## C=Cc1cnc(NC2CCN(S(=O)(=O)c3cccc(CN4CCC(c5ccc6c(N7CCC(=O)NC7=O)nn(C)c6c5)CC4)c3)CC2)nc1 [Example 58, 1-(1-methyl-6-(1-(3-((4-((5-vinylpyrimidin-2-yl)amino)piperidin-1-yl)sulfonyl)benzyl)-piperidin-4-yl)-1H-indazol-3-yl)dihydropyrimidine-2,4(1H,3H)-dione]
CDK2 [1]
  IC50: 100 to 500 nM
CDK2 [2]
  DC50: 1 to 10 nM

## CCc1cnc(NC2CCN(S(=O)(=O)c3cccc(CN4CCC(c5ccc6c(N7CCC(=O)NC7=O)nn(C)c6c5)CC4)c3)CC2)nc1 [Example 61, 1-(6-(1-(3-((4-((5-ethylpyrimidin-2-yl)amino)piperidin-1-yl)sulfonyl)benzyl)-piperidin-4-yl)-1-methyl-1H-indazol-3-yl)dihydropyrimidine-2,4(1H,3H)-dione]
CDK2 [1]
  IC50: 1 to 100 nM
CDK2 [2]
  DC50: 10 to 100 nM

## Cn1nc(N2CCC(=O)NC2=O)c2ccc(C3CCN(Cc4ccc(S(=O)(=O)N5CCC(Nc6ncc(C(F)(F)F)cn6)CC5)cc4)CC3)cc21 [Example 64, 1-(1-methyl-6-(1-(4-((4-((5-(trifluoro-methyl)pyrimidin-2-yl)amino)piperidin-1-yl)sulfonyl)benzyl)piperidin-4-yl)-1H-indazol-3-yl)dihydropyrimidine-2,4(1H,3H)-dione]
CDK2 [1]
  IC50: 1 to 100 nM
CDK2 [2]
  DC50: 1 to 10 nM

## CC(Cc1cccc(S(=O)(=O)N2CCC(Nc3ncc(OC(F)F)cn3)CC2)c1)CN1CCC(c2ccc3c(N4CCC(=O)NC4=O)nn(C)c3c2)CC1 (stereo not shown) [Example 66, 1-(6-(1-(3-(3-((4-((5-(difluoromethoxy)-pyrimidin-2-yl)amino)piperidin-1-yl)sulfonyl)phenyl)-2-methylpropyl)-piperidin-4-yl)-1-methyl-1H-indazol-3-yl)dihydropyrimidine-2,4(1H,3H)-dione]
CDK2 [1]
  IC50: 1 to 100 nM
CDK2 [2]
  DC50: 1 to 10 nM

## Cn1nc(N2CCC(=O)NC2=O)c2ccc(C3CCN(CC4CCN(c5cccc(S(=O)(=O)N6CCC(Nc7ncc(Cl)cn7)CC6)c5)CC4)CC3)c(Cl)c21 [Example 71, 1-(7-chloro-6-(1-((1-(3-((4-((5-chloro-pyrimidin-2-yl)amino)piperidin-1-yl)sulfonyl)phenyl)piperidin-4-yl)methyl)-piperidin-4-yl)-1-methyl-1H-indazol-3-yl)dihydropyrimidine-2,4(1H,3H)-dione]
CDK2 [1]
  IC50: 1 to 100 nM
CDK2 [2]
  DC50: 1 to 10 nM

## O=C1CCC(N2Cc3cc(N4CCN(Cc5cccc(S(=O)(=O)N6CCC(Nc7ncc(OC(F)F)cn7)CC6)c5)CC4)c(F)cc3C2=O)C(=O)N1 (stereo not shown) [Example 74, 3-(5-(4-(3-((4-((5-(difluoromethoxy)-pyrimidin-2-yl)amino)piperidin-1-yl)sulfonyl)benzyl)piperazin-1-yl)-6-fluoro-1-oxoisoindolin-2-yl)piperidine-2,6-dione]
CDK2 [1]
  IC50: 100 to 500 nM
CDK2 [2]
  DC50: 1 to 10 nM

## O=C1CCC(N2Cc3cc(N4CCN(Cc5cccc(S(=O)(=O)N6CCC(Nc7ncc(C(F)(F)F)cn7)CC6)c5)CC4)ccc3C2=O)C(=O)N1 (stereo not shown) [Example 76, 3-(1-oxo-5-(4-(3-((4-((5-(trifluoromethyl)-pyrimidin-2-yl)amino)piperidin-1-yl)sulfonyl)benzyl)piperazin-1-yl)isoindolin-2-yl)piperidine-2,6-dione]
CDK2 [1]
  IC50: 1 to 100 nM
CDK2 [2]
  DC50: 1 to 10 nM

## Cn1nc(N2CCC(=O)NC2=O)c2cc(F)c(C3CCN(Cc4cccc(S(=O)(=O)N5CCC(Nc6ncc(OC(F)F)cn6)CC5)c4)CC3)cc21 [Example 77, 1-(6-(1-(3-((4-((5-(difluoromethoxy)-pyrimidin-2-yl)amino)piperidin-1-yl)sulfonyl)benzyl)piperidin-4-yl)-5-fluoro-1-methyl-1H-indazol-3-yl)dihydropyrimidine-2,4(1H,3H)-dione]
CDK2 [1]
  IC50: 1 to 100 nM
CDK2 [2]
  DC50: 1 to 10 nM

## Cn1c(=O)n(C2CCC(=O)NC2=O)c2cccc(C3CCN(Cc4cccc(S(=O)(=O)N5CCC(Nc6ncc(C(F)(F)F)cn6)CC5)c4)CC3)c21 (stereo not shown) [Example 83, 3-(3-methyl-2-oxo-4-(1-(3-((4-((5-(trifluoromethyl)pyrimidin-2-yl)amino)piperidin-1-yl)sulfonyl)benzyl)-piperidin-4-yl)-2,3-dihydro-1H-benzo[d]imidazol-1-yl)piperidine-2,6-dione]
CDK2 [1]
  IC50: 1 to 100 nM
CDK2 [2]
  DC50: 1 to 10 nM

## Cn1nc(N2CCC(=O)NC2=O)c2ccc(C3CCN(CCCc4cccc(S(=O)(=O)N5CCC(Nc6ncc(OC(F)F)cn6)CC5)c4)CC3)cc21 [Example 86, 1-(6-(1-(3-(3-((4-((5-(difluoromethoxy)-pyrimidin-2-yl)amino)piperidin-1-yl)sulfonyl)phenyl)propyl)piperidin-4-yl)-1-methyl-1H-indazol-3-yl)dihydropyrimidine-2,4(1H,3H)-dione]
CDK2 [1]
  IC50: 1 to 100 nM
CDK2 [2]
  DC50: 10 to 100 nM

## Cn1nc(N2CCC(=O)NC2=O)c2ccc(C3CCN(CCCc4cccc(S(=O)(=O)N5CCC(Nc6ncc(C(F)(F)F)cn6)CC5)c4)CC3)cc21 [Example 87, 1-(1-methyl-6-(1-(3-(3-((4-((5-(trifluoro-methyl)pyrimidin-2-yl)amino)piperidin-1-yl)sulfonyl)phenyl)propyl)piperidin-4-yl)-1H-indazol-3-yl)dihydropyrimidine-2,4(1H,3H)-dione]
CDK2 [1]
  IC50: 1 to 100 nM
CDK2 [2]
  DC50: 1 to 10 nM

## Cn1nc(N2CCC(=O)NC2=O)c2ccc(C3CCN(CC4CCN(c5cccc(S(=O)(=O)N6CCC(Nc7ncc(C(F)(F)F)cn7)CC6)c5)CC4)CC3)c(Cl)c21 [Example 89, 1-(7-chloro-1-methyl-6-(1-((1-(3-((4-((5-(trifluoromethyl)pyrimidin-2-yl)amino)-piperidin-1-yl)sulfonyl)phenyl)piperidin-4-yl)methyl)piperidin-4-yl)-1H-indazol-3-yl)dihydropyrimidine-2,4(1H,3H)-dione]
CDK2 [1]
  IC50: 1 to 100 nM
CDK2 [2]
  DC50: 10 to 100 nM

## O=C1CCN(c2nn(CC(F)(F)F)c3cc(C4CCN(CC5CCN(c6cccc(S(=O)(=O)N7CCC(Nc8ncc(C(F)(F)F)cn8)CC7)c6)CC5)CC4)ccc23)C(=O)N1 [Example 91, 1-(1-(2,2,2-trifluoroethyl)-6-(1-((1-(3-((4-((5-(trifluoromethyl)pyrimidin-2-yl)amino)piperidin-1-yl)sulfonyl)phenyl)-piperidin-4-yl)methyl)piperidin-4-yl)-1H-indazol-3-yl)dihydropyrimidine-2,4(1H,3H)-dione]
CDK2 [1]
  IC50: 100 to 500 nM
CDK2 [2]
  DC50: 10 to 100 nM

## O=C1CCC(N2Cc3cc(N4CCC(N5CC(Oc6cccc(S(=O)(=O)N7CCC(Nc8ncc(C(F)(F)F)cn8)CC7)c6)C5)CC4)ccc3C2=O)C(=O)N1 (stereo not shown) [Example 92, 3-(1-oxo-5-(4-(3-(3-((4-((5-(trifluoro-methyl)pyrimidin-2-yl)amino)piperidin-1-yl)sulfonyl)phenoxy)azetidin-1-yl)piperidin-1-yl)isoindolin-2-yl)piperidine-2,6-dione]
CDK2 [1]
  IC50: 100 to 500 nM
CDK2 [2]
  DC50: 1 to 10 nM

## Cn1nc(N2CCC(=O)NC2=O)c2ccc(C3CCN(Cc4cccc(S(=O)(=O)N5CCC(Nc6ncc(OC(F)F)cn6)CC5)c4)CC3)c(F)c21 [Example 93, 1-(6-(1-(3-((4-((5-(difluoromethoxy)-pyrimidin-2-yl)amino)piperidin-1-yl)sulfonyl)benzyl)piperidin-4-yl)-7-fluoro-1-methyl-1H-indazol-3-yl)dihydropyrimidine-2,4(1H,3H)-dione]
CDK2 [1]
  IC50: 1 to 100 nM
CDK2 [2]
  DC50: 1 to 10 nM

## Cn1nc(N2CCC(=O)NC2=O)c2ccc(C3CCN(CC4CCN(c5cccc(S(=O)(=O)N6CCC(Nc7ncc(C(F)(F)F)cn7)CC6)c5)CC4)CC3)c(F)c21 [Example 94, 1-(7-fluoro-1-methyl-6-(1-((1-(3-((4-((5-(trifluoromethyl)pyrimidin-2-yl)amino)-piperidin-1-yl)sulfonyl)phenyl)piperidin-4-yl)methyl)piperidin-4-yl)-1H-indazol-3-yl)dihydropyrimidine-2,4(1H,3H)-dione]
CDK2 [1]
  IC50: 1 to 100 nM
CDK2 [2]
  DC50: 10 to 100 nM

## Cn1nc(N2CCC(=O)NC2=O)c2ccc(C3CCN(CC4CCN(c5cccc(S(=O)(=O)N6CCC(Nc7ncc(Cl)cn7)CC6)c5)CC4)CC3)c(F)c21 [Example 95, 1-(6-(1-((1-(3-((4-((5-chloropyrimidin-2-yl)amino)piperidin-1-yl)sulfonyl)phenyl)-piperidin-4-yl)methyl)piperidin-4-yl)-7-fluoro-1-methyl-1H-indazol-3-yl)dihydropyrimidine-2,4(1H,3H)-dione]
CDK2 [1]
  IC50: 1 to 100 nM
CDK2 [2]
  DC50: 1 to 10 nM
